Reference: PubChem BioAssay AID1963986 (Molecular Pharmacology Branch, DTP, NCI, 2024)

System: 171881-019-R-J1-PDC tumor spheroid viability
Assay: Anticancer human tumor 171881-019-R-J1-PDC patient-derived invasive breast carcinoma cell line growth inhibition [PI3K]
Conditions: spheroids with HUVEC and MSC; for IC50: curve of first compound; for viability, T/C: stronger effect = lower value; active = viability on the fitted dose curve at most 10% of control; inactive = the rest
Summary of the method: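 High-throughput combination screen: PI3K inhibitors crossed with targeted small molecules on complex spheroids of tumor cells, HUVEC and MSCs at 37 degrees C, 5% CO2. Top concentration was at or near clinical Cmax (otherwise 10 microM), with half-log decrements.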
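Also: spheroids exposed to compound for 7 days before viability read.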
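For viability, T/C in this document: 100% = DMSO vehicle-treated spheroids.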

CNC(=O)c1ccc(N2C(=S)N(c3ccc(C#N)c(C(F)(F)F)c3)C(=O)C2(C)C)cc1F + COc1c(OCCCN2CCOCC2)ccc2c3n(c(=NC(=O)c4cnc(N)nc4)nc12)CCN3
active: viability, T/C (second compound 0.1 µM, first compound 0.0316 µM) 9.2% | viability, T/C (second compound 0.1 µM, first compound 0.1 µM) 7.58% | viability, T/C (second compound 0.1 µM, first compound 0.316 µM) 7.75% | viability, T/C (second compound 0.1 µM, first compound 1 µM) 8.13% | viability, T/C (second compound 0.1 µM, first compound 3.16 µM) 8.01% | viability, T/C (second compound 0.1 µM, first compound 10 µM) 7.49% | viability, T/C (second compound 0.316 µM, first compound 0.0316 µM) 2.27% | viability, T/C (second compound 0.316 µM, first compound 0.1 µM) 1.99% | viability, T/C (second compound 0.316 µM, first compound 0.316 µM) 2.25% | viability, T/C (second compound 0.316 µM, first compound 1 µM) 2.17% | viability, T/C (second compound 0.316 µM, first compound 3.16 µM) 2.25% | viability, T/C (second compound 0.316 µM, first compound 10 µM) 3.05% | viability, T/C (second compound 1 µM, first compound 0.0316 µM) 1.38% | viability, T/C (second compound 1 µM, first compound 0.1 µM) 1.14% | viability, T/C (second compound 1 µM, first compound 0.316 µM) 1.18% | viability, T/C (second compound 1 µM, first compound 1 µM) 1.73% | viability, T/C (second compound 1 µM, first compound 3.16 µM) 1.02% | viability, T/C (second compound 1 µM, first compound 10 µM) 1.64%
> 10000 nM: IC50 (second compound 0.00316 µM)
< 31.6 nM: IC50 (second compound 0.01 µM) | IC50 (second compound 0.0316 µM) | IC50 (second compound 0.1 µM) | IC50 (second compound 0.316 µM) | IC50 (second compound 1 µM)
inactive: viability, T/C (second compound 0.00316 µM, first compound 0.0316 µM) 64% | viability, T/C (second compound 0.00316 µM, first compound 0.1 µM) 77.1% | viability, T/C (second compound 0.00316 µM, first compound 0.316 µM) 68.7% | viability, T/C (second compound 0.00316 µM, first compound 1 µM) 80.8% | viability, T/C (second compound 0.00316 µM, first compound 3.16 µM) 62.1% | viability, T/C (second compound 0.00316 µM, first compound 10 µM) 61.8% | viability, T/C (second compound 0.01 µM, first compound 0.0316 µM) 46.4% | viability, T/C (second compound 0.01 µM, first compound 0.1 µM) 48% | viability, T/C (second compound 0.01 µM, first compound 0.316 µM) 53.4% | viability, T/C (second compound 0.01 µM, first compound 1 µM) 50.3% | viability, T/C (second compound 0.01 µM, first compound 3.16 µM) 43.5% | viability, T/C (second compound 0.01 µM, first compound 10 µM) 43.5% | viability, T/C (second compound 0.0316 µM, first compound 0.0316 µM) 28% | viability, T/C (second compound 0.0316 µM, first compound 0.1 µM) 27.9% | viability, T/C (second compound 0.0316 µM, first compound 0.316 µM) 28% | viability, T/C (second compound 0.0316 µM, first compound 1 µM) 24.5% | viability, T/C (second compound 0.0316 µM, first compound 3.16 µM) 25.8% | viability, T/C (second compound 0.0316 µM, first compound 10 µM) 21.8%

Cn1cnc2c(F)c(Nc3ccc(Br)cc3Cl)c(C(=O)NOCCO)cc21 + COc1c(OCCCN2CCOCC2)ccc2c3n(c(=NC(=O)c4cnc(N)nc4)nc12)CCN3
59 nM: IC50 (second compound 0.00316 µM)
inactive: viability, T/C (second compound 0.00316 µM, first compound 0.00949 µM) 55.7% | viability, T/C (second compound 0.00316 µM, first compound 0.03 µM) 59.1% | viability, T/C (second compound 0.00316 µM, first compound 0.0949 µM) 43.1% | viability, T/C (second compound 0.00316 µM, first compound 0.3 µM) 37.1% | viability, T/C (second compound 0.00316 µM, first compound 0.949 µM) 21.8% | viability, T/C (second compound 0.01 µM, first compound 0.00949 µM) 39.5% | viability, T/C (second compound 0.01 µM, first compound 0.03 µM) 39.4% | viability, T/C (second compound 0.01 µM, first compound 0.0949 µM) 31.9% | viability, T/C (second compound 0.01 µM, first compound 0.3 µM) 24.2% | viability, T/C (second compound 0.01 µM, first compound 0.949 µM) 14% | viability, T/C (second compound 0.0316 µM, first compound 0.00949 µM) 20.8% | viability, T/C (second compound 0.0316 µM, first compound 0.03 µM) 18.8% | viability, T/C (second compound 0.0316 µM, first compound 0.0949 µM) 16.9% | viability, T/C (second compound 0.0316 µM, first compound 0.3 µM) 10.5%
active: viability, T/C (second compound 0.00316 µM, first compound 3 µM) 9.21% | viability, T/C (second compound 0.01 µM, first compound 3 µM) 4.9% | viability, T/C (second compound 0.0316 µM, first compound 0.949 µM) 6.05% | viability, T/C (second compound 0.0316 µM, first compound 3 µM) 1.88% | viability, T/C (second compound 0.1 µM, first compound 0.00949 µM) 6.77% | viability, T/C (second compound 0.1 µM, first compound 0.03 µM) 5.8% | viability, T/C (second compound 0.1 µM, first compound 0.0949 µM) 4.51% | viability, T/C (second compound 0.1 µM, first compound 0.3 µM) 2.81% | viability, T/C (second compound 0.1 µM, first compound 0.949 µM) 1.28% | viability, T/C (second compound 0.1 µM, first compound 3 µM) 0.8% | viability, T/C (second compound 0.316 µM, first compound 0.00949 µM) 1.87% | viability, T/C (second compound 0.316 µM, first compound 0.03 µM) 2.04% | viability, T/C (second compound 0.316 µM, first compound 0.0949 µM) 1.3% | viability, T/C (second compound 0.316 µM, first compound 0.3 µM) 0.68% | viability, T/C (second compound 0.316 µM, first compound 0.949 µM) 0.42% | viability, T/C (second compound 0.316 µM, first compound 3 µM) 0.28% | viability, T/C (second compound 1 µM, first compound 0.00949 µM) 0.82% | viability, T/C (second compound 1 µM, first compound 0.03 µM) 1.37% | viability, T/C (second compound 1 µM, first compound 0.0949 µM) 0.93% | viability, T/C (second compound 1 µM, first compound 0.3 µM) 1.07% | viability, T/C (second compound 1 µM, first compound 0.949 µM) 0.79% | viability, T/C (second compound 1 µM, first compound 3 µM) 0.56%
< 9.49 nM: IC50 (second compound 0.01 µM) | IC50 (second compound 0.0316 µM) | IC50 (second compound 0.1 µM) | IC50 (second compound 0.316 µM) | IC50 (second compound 1 µM)
